# Source: ChEMBL document CHEMBL4507322, “Data for DCP probe (R)-ZINC-3573” (2021)
# Assays:
# [1] = target: Histamine H4 receptor (Homo sapiens) (UniProt Q9H3N8); conditions: Compound concentration 10.0 uM
# [2] = target: T1, GABA-A receptor; anion channel (Rattus norvegicus) (UniProt O09028+P15431+P18506+P18508+P19969+P20236+P23574+P23576+P28471+P28473+P30191+P62813+P63079+P63138+Q91ZM7+Q9ES14); conditions: Compound concentration 10.0 uM
# [3] = target: T2, 5-hydroxytryptamine receptor 3A (Homo sapiens, UniProt P46098); test: GPCRScan assay: inhibition of 5-HT3; parameters: radioligand conc. used [nm] 1.0 – 2.0, parental cells HEKT
# T2 sequence (P46098 whole entry): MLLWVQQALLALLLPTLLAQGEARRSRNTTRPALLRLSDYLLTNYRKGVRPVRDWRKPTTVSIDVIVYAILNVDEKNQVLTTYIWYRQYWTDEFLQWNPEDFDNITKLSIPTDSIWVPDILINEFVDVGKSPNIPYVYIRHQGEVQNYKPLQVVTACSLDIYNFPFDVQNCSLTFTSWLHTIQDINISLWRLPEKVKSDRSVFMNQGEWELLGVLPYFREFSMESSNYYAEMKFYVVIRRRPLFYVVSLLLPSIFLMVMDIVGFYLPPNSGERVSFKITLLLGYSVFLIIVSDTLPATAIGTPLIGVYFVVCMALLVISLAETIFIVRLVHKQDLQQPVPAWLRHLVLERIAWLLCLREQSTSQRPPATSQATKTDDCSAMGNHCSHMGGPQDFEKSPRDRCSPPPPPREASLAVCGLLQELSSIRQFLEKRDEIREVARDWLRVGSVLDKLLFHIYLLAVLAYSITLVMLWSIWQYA
# [4] = target: T3, 5-hydroxytryptamine receptor 1B (Homo sapiens, UniProt P28222); conditions: Compound concentration 10.0 uM
# T3 sequence (P28222 whole entry): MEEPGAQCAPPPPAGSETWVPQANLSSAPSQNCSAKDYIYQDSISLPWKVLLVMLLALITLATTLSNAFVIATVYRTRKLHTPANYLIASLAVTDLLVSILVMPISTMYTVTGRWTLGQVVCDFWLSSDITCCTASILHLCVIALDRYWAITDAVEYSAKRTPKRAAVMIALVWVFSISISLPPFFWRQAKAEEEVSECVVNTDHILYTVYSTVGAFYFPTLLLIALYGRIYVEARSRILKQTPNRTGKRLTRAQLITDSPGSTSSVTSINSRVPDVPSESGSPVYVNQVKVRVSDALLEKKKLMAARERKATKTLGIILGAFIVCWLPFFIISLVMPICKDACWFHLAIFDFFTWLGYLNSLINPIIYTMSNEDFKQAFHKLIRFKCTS
# [5] = target: Muscarinic acetylcholine receptor M2 (Homo sapiens) (UniProt P08172); conditions: Compound concentration 10.0 uM
# [6] = target: Muscarinic acetylcholine receptor M1 (Homo sapiens) (UniProt P11229); conditions: Compound concentration 10.0 uM
# Muscarinic acetylcholine receptor M1 (Homo sapiens), sequence (P11229 whole entry): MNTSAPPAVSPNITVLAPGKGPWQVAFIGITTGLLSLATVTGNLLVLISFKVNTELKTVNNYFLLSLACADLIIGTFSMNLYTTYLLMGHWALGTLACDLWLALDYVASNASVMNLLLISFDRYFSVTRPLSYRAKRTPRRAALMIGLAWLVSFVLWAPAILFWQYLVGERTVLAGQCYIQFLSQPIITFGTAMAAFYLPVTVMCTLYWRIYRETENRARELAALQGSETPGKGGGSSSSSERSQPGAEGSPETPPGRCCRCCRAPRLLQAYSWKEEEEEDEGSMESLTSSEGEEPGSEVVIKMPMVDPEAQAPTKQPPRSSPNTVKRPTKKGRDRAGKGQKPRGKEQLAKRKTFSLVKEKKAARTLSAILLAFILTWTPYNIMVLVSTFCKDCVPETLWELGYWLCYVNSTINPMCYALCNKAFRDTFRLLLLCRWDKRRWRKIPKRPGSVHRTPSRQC
# [7] = target: Beta-1 adrenergic receptor (Homo sapiens) (UniProt P08588); conditions: Compound concentration 10.0 uM
# [8] = target: Sodium-dependent serotonin transporter (Homo sapiens) (UniProt P31645); conditions: Compound concentration 10.0 uM
# Sodium-dependent serotonin transporter (Homo sapiens), sequence (P31645 whole entry, looked up): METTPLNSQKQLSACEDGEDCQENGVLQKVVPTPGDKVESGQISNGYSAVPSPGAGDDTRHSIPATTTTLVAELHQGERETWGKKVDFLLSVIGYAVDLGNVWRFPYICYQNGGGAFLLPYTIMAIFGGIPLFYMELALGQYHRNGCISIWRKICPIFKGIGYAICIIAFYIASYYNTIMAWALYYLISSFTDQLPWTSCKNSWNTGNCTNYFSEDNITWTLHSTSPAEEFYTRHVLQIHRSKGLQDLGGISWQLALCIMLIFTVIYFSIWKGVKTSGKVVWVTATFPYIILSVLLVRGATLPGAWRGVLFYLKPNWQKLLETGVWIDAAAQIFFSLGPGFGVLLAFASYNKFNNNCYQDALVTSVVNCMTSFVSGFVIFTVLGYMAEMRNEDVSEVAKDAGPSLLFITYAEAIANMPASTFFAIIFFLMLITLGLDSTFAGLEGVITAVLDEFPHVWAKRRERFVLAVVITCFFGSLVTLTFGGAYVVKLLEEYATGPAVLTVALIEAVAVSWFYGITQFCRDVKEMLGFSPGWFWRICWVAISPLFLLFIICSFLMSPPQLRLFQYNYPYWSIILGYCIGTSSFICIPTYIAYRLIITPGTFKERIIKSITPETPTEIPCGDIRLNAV
# [9] = target: 5-hydroxytryptamine receptor 1A (Homo sapiens, UniProt P08908); test: GPCRScan assay: inhibition of 5-HT1A; parameters: radioligand conc. used [nm] 0.5 – 1.0, parental cells stable CHO
# D(2) dopamine receptor [10] = target: T4, D(2) dopamine receptor (Homo sapiens, UniProt P14416); test: GPCRScan assay: inhibition of D2; parameters: radioligand conc. used [nm] 0.4 – 1.0, parental cells stable fibroblast
# T4 sequence (P14416 whole entry): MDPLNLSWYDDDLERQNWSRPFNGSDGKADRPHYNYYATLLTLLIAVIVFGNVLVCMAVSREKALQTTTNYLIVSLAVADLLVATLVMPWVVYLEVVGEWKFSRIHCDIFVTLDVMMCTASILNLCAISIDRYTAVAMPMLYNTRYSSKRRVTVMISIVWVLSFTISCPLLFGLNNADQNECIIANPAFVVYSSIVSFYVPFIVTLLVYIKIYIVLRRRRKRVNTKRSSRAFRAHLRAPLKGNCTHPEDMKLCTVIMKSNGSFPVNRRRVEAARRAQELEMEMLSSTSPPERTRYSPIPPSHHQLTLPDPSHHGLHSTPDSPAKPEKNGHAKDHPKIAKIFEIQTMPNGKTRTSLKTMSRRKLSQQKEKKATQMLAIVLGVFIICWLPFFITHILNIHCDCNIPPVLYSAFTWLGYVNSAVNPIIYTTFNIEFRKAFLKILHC
# [11] = target: 5-hydroxytryptamine receptor 1E (Homo sapiens) (UniProt P28566); conditions: Compound concentration 10.0 uM
# [12] = target: Alpha-1A adrenergic receptor (Homo sapiens) (UniProt P35348); conditions: Compound concentration 10.0 uM
# [13] = target: Alpha-2C adrenergic receptor (Homo sapiens) (UniProt P18825); conditions: Compound concentration 10.0 uM
# Alpha-2C adrenergic receptor (Homo sapiens), sequence (P18825 whole entry): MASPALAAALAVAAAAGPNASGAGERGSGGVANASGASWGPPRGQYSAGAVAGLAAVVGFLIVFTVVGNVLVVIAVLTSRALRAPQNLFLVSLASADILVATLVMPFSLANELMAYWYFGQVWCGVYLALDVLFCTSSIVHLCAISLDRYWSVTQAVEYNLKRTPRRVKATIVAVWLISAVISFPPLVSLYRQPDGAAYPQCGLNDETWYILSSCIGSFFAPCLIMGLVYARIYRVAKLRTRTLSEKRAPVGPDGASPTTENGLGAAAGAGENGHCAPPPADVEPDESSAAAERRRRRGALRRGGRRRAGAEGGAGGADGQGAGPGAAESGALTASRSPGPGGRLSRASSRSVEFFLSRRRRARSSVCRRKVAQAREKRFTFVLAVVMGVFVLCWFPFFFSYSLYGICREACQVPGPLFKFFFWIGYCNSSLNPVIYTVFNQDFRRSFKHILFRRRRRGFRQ
# [14] = target: 5-hydroxytryptamine receptor 2C (Homo sapiens) (UniProt P28335); conditions: Compound concentration 10.0 uM
# 5-hydroxytryptamine receptor 2C (Homo sapiens), sequence (P28335 whole entry): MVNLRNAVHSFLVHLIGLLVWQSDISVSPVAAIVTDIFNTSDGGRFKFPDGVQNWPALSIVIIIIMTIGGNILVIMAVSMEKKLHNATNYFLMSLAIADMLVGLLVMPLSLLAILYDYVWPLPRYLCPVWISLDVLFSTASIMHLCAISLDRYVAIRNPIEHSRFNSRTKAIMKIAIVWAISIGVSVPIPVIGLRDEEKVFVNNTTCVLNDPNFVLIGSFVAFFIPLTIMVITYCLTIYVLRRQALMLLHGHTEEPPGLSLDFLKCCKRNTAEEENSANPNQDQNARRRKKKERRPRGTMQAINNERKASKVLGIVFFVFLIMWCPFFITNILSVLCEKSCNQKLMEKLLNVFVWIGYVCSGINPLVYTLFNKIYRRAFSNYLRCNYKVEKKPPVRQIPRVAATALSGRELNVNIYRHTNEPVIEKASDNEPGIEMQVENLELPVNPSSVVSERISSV
# [15] = target: T5, Sigma intracellular receptor 2 (Homo sapiens, UniProt Q5BJF2); test: GPCRScan assay: inhibition of Sigma 2; parameters: radioligand conc. used [nm] 5.0, parental cells HEKT
# T5 sequence (Q5BJF2 whole entry): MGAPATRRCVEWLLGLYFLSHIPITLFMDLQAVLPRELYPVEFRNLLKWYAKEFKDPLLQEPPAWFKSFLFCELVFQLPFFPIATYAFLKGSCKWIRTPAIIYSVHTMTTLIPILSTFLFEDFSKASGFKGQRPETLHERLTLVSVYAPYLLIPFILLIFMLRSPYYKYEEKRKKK
# [16] = target: T1, GABA-A receptor; anion channel (Rattus norvegicus); conditions: Compound concentration 10.0 uM; remark: listed apart in the source
# [17] = target: T5, Sigma intracellular receptor 2; conditions: Compound concentration 10.0 uM
# [18] = target: Alpha-1D adrenergic receptor (Homo sapiens) (UniProt P25100); conditions: Compound concentration 10.0 uM
# [19] = target: Alpha-2B adrenergic receptor (Homo sapiens) (UniProt P18089); conditions: Compound concentration 10.0 uM
# [20] = target: Muscarinic acetylcholine receptor M5 (Homo sapiens) (UniProt P08912); conditions: Compound concentration 10.0 uM
# [21] = target: 5-hydroxytryptamine receptor 5A (Homo sapiens) (UniProt P47898); conditions: Compound concentration 10.0 uM
# [22] = target: T6, 5-hydroxytryptamine receptor 1D (Homo sapiens, UniProt P28221); test: GPCRScan assay: inhibition of 5-HT1D; parameters: radioligand conc. used [nm] 1.0 – 2.0, parental cells HEKT
# T6 sequence (P28221 whole entry): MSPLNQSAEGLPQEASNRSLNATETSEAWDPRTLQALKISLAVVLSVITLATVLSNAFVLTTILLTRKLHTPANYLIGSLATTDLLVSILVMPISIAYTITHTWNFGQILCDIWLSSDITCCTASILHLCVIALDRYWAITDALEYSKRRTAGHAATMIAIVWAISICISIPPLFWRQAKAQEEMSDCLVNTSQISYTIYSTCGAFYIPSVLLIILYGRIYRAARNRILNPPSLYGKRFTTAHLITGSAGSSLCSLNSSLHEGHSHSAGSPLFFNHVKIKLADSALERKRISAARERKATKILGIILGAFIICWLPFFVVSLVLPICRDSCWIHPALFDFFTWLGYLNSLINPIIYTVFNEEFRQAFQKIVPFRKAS
# [23] = target: Histamine H1 receptor (Homo sapiens) (UniProt P35367); conditions: Compound concentration 10.0 uM
# [24] = target: Beta-2 adrenergic receptor (Homo sapiens) (UniProt P07550); conditions: Compound concentration 10.0 uM
# [25] = target: Histamine H3 receptor (Homo sapiens) (UniProt Q9Y5N1); conditions: Compound concentration 10.0 uM
# [26] = target: Beta-3 adrenergic receptor (Homo sapiens) (UniProt P13945); conditions: Compound concentration 10.0 uM
# [27] = target: Alpha-1B adrenergic receptor (Homo sapiens) (UniProt P35368); conditions: Compound concentration 10.0 uM
# [28] = target: Muscarinic acetylcholine receptor M3 (Homo sapiens) (UniProt P20309); conditions: Compound concentration 10.0 uM
# [29] = target: Alpha-2A adrenergic receptor (Homo sapiens) (UniProt P08913); conditions: Compound concentration 10.0 uM
# [30] = target: T7, Sodium-dependent dopamine transporter (Homo sapiens, UniProt Q01959); conditions: Compound concentration 10.0 uM
# T7 sequence (Q01959 whole entry): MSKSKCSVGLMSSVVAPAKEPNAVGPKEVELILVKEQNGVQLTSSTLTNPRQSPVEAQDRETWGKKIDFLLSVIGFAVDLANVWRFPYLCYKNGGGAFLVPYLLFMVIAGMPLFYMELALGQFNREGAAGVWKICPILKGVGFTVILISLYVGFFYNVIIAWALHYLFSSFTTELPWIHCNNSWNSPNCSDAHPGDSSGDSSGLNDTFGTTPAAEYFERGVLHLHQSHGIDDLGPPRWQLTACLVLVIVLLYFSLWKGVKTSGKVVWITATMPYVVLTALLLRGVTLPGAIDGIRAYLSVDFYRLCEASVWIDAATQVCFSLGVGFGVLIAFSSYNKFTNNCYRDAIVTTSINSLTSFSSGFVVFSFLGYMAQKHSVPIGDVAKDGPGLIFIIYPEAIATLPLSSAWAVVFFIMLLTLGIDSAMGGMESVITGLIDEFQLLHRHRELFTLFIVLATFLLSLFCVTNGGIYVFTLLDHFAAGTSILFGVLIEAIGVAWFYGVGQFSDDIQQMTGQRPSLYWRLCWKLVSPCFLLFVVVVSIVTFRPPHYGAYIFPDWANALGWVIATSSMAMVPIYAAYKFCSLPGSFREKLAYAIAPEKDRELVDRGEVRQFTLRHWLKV
# [31] = target: Delta-type opioid receptor (Homo sapiens) (UniProt P41143); conditions: Compound concentration 10.0 uM
# [32] = target: T8, 5-hydroxytryptamine receptor 6 (Homo sapiens, UniProt P50406); test: GPCRScan assay: inhibition of 5-HT6; parameters: radioligand conc. used [nm] 2.0 – 4.0, parental cells stable HEK
# T8 sequence (P50406 whole entry): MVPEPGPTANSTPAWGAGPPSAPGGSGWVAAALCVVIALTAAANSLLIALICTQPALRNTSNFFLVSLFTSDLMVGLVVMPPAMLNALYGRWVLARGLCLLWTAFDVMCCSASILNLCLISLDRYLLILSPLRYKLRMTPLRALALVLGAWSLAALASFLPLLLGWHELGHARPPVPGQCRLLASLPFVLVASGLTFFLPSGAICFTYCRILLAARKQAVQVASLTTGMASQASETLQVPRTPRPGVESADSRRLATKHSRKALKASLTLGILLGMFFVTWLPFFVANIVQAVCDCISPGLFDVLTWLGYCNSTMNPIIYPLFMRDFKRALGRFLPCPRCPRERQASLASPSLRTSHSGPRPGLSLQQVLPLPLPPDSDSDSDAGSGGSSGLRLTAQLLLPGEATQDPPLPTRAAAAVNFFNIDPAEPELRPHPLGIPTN
# [33] = target: Sigma non-opioid intracellular receptor 1 (Homo sapiens) (UniProt Q99720); conditions: Compound concentration 10.0 uM
# Sigma non-opioid intracellular receptor 1 (Homo sapiens), sequence (Q99720 whole entry): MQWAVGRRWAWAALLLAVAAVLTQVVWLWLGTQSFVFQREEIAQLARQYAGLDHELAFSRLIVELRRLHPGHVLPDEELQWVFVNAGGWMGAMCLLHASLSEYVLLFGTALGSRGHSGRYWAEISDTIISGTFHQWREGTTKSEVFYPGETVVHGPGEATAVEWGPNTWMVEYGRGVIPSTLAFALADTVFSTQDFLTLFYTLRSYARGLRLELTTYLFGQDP
# [34] = target: Kappa-type opioid receptor (Homo sapiens) (UniProt P41145); conditions: Compound concentration 10.0 uM
# [35] = target: 5-hydroxytryptamine receptor 7 (Homo sapiens) (UniProt P34969); conditions: Compound concentration 10.0 uM
# [36] = target: Sodium-dependent noradrenaline transporter (Homo sapiens) (UniProt P23975); conditions: Compound concentration 10.0 uM
# [37] = target: Muscarinic acetylcholine receptor M4 (Homo sapiens) (UniProt P08173); conditions: Compound concentration 10.0 uM
# [38] = target: 5-hydroxytryptamine receptor 2A (Homo sapiens) (UniProt P28223); conditions: Compound concentration 10.0 uM
# [39] = target: T6, 5-hydroxytryptamine receptor 1D; conditions: Compound concentration 10.0 uM
# [40] = target: Histamine H2 receptor (Homo sapiens) (UniProt P25021); conditions: Compound concentration 10.0 uM
# D(2) dopamine receptor [41] = target: T4, D(2) dopamine receptor; conditions: Compound concentration 10.0 uM
# [42] = target: T3, 5-hydroxytryptamine receptor 1B; test: GPCRScan assay: inhibition of 5-HT1B; parameters: radioligand conc. used [nm] 0.6 – 1.5, parental cells stable HEK
# [43] = target: Mu-type opioid receptor (Homo sapiens) (UniProt P35372); conditions: Compound concentration 10.0 uM
# [44] = target: 5-hydroxytryptamine receptor 1A (Homo sapiens) (UniProt P08908); conditions: Compound concentration 10.0 uM
# [45] = target: GABA-A receptor; anion channel; test: GPCRScan assay: inhibition of GABAA/BZP; assay type: protein-complex assay, Rattus norvegicus; parameters: radioligand conc. used [nm] 0.6 – 4.0, parental cells brain tissue
# Rattus norvegicus = organism: Rattus norvegicus; conditions: Compound concentration 10.0 uM
# [46] = target: 5-hydroxytryptamine receptor 3A (Homo sapiens) (UniProt P46098); conditions: Compound concentration 10.0 uM
# [47] = target: D(3) dopamine receptor (Homo sapiens) (UniProt P35462); conditions: Compound concentration 10.0 uM
# [48] = target: D(4) dopamine receptor (Homo sapiens) (UniProt P21917); conditions: Compound concentration 10.0 uM
# [49] = target: T7, Sodium-dependent dopamine transporter; test: GPCRScan assay: inhibition of DAT; parameters: radioligand conc. used [nm] 3.6 – 16.0, parental cells stable HEK
# [50] = target: D(1B) dopamine receptor (Homo sapiens) (UniProt P21918); conditions: Compound concentration 10.0 uM
# [51] = target: 5-hydroxytryptamine receptor 2B (Homo sapiens) (UniProt P41595); conditions: Compound concentration 10.0 uM
# [52] = target: D(1A) dopamine receptor (Homo sapiens) (UniProt P21728); conditions: Compound concentration 10.0 uM
# [53] = target: T8, 5-hydroxytryptamine receptor 6; conditions: Compound concentration 10.0 uM
# [54] = target: T9, Mas-related G-protein coupled receptor member X2 (Homo sapiens, UniProt Q96LB1); test: FLIPR assay
# [55] = target: T9, Mas-related G-protein coupled receptor member X2; test: PRESTO-Tango concentration response assay
# [56] = target: Alpha-1B adrenergic receptor (Homo sapiens, UniProt P35368); test: GPCRScan assay: inhibition of Alpha1B; parameters: radioligand conc. used [nm] 0.3 – 1.0, parental cells stable HEK
compound,measurement,setting,value
CN(C)[C@@H]1CCN(c2cc(-c3ccccc3)nc3ccnn23)C1 [(R)-ZINC-3573],inhibition,[1],7.75%
same,inhibition,[2],54.9%
same,Ki,[3]; read-out: Ki,2960 nM
same,Ki,[3]; read-out: pKi (converted),2880 nM
same,inhibition,[4],52.5%
same,inhibition,[5],20.1%
same,inhibition,[6],5.27%
same,inhibition,[7],30.7%
same,inhibition,[8],4.09%
same,Ki,[9],1620 nM
same,Ki,D(2) dopamine receptor [10]; read-out: Ki,369 nM
same,Ki,D(2) dopamine receptor [10]; read-out: pKi (converted),355 nM
same,inhibition,[11],7.26%
same,inhibition,[12],21.8%
same,inhibition,[13],40.5%
same,inhibition,[14],2.22%
same,Ki,[15]; read-out: Ki,489 nM
same,Ki,[15]; read-out: pKi (converted),479 nM
same,inhibition,[16],37.3%
same,inhibition,[17],82.4%
same,inhibition,[18],20.4%
same,inhibition,[19],11.3%
same,inhibition,[20],-3.76%
same,inhibition,[21],13.8%
same,Ki,[22]; read-out: Ki,1740 nM
same,Ki,[22]; read-out: pKi (converted),1700 nM
same,inhibition,[23],39.3%
same,inhibition,[24],14.4%
same,inhibition,[25],38.6%
same,inhibition,[26],12.7%
same,inhibition,[27],10.2%
same,inhibition,[28],11.7%
same,inhibition,[29],32.9%
same,inhibition,[30],74.3%
same,inhibition,[31],34.3%
same,Ki,[32]; read-out: Ki,748 nM
same,inhibition,[33],28.6%
same,inhibition,[34],13.6%
same,inhibition,[35],12.3%
same,inhibition,[36],45.4%
same,inhibition,[37],28.8%
same,inhibition,[38],16.3%
same,inhibition,[39],58.4%
same,inhibition,[40],31.9%
same,inhibition,D(2) dopamine receptor [41],69.8%
same,Ki,[42],3240 nM
same,inhibition,[43],21.3%
same,inhibition,[44],64.8%
same,Ki,[45],1940 nM
same,pKi,[45],5.73
same,inhibition,Rattus norvegicus,11.6%
same,inhibition,[46],76.6%
same,inhibition,[47],28.1%
same,inhibition,[48],32.6%
same,Ki,[49]; read-out: Ki,1110 nM
same,Ki,[49]; read-out: pKi (converted),1100 nM
same,inhibition,[50],6.36%
same,inhibition,[51],16.7%
same,inhibition,[52],38.9%
same,inhibition,[53],58.9%
CN(C)[C@H]1CCN(c2cc(-c3ccccc3)nc3ccnn23)C1 [(S)-ZINC-3573],inhibition,[1],12.4%
same,inhibition,[2],21.5%
same,Ki,[3]; read-out: Ki,3630 nM
same,Ki,[3]; read-out: pKi (converted),3550 nM
same,inhibition,[4],4.88%
same,inhibition,[5],26.6%
same,inhibition,[6],42.8%
same,inhibition,[7],4.16%
same,inhibition,[8],2.83%
same,inhibition,[12],34.2%
same,inhibition,[13],16.4%
same,inhibition,[14],-3.16%
same,Ki,[15]; read-out: Ki,973 nM
same,inhibition,[17],65.1%
same,inhibition,[18],33.5%
same,inhibition,[19],9.93%
same,inhibition,[20],40.4%
same,inhibition,[21],5.42%
same,Ki,[22]; read-out: Ki,2960 nM
same,Ki,[22]; read-out: pKi (converted),2880 nM
same,inhibition,[23],16.4%
same,inhibition,[24],27.4%
same,inhibition,[25],13.4%
same,EC50,[54],> 100000 nM (not active)
same,EC50,[55],> 100000 nM (not active)
same,inhibition,[26],18.9%
same,inhibition,[27],59.1%
same,inhibition,[28],29.4%
same,inhibition,[29],40.2%
same,Ki,[56]; read-out: Ki,2290 nM
same,Ki,[56]; read-out: pKi (converted),2110 nM
same,inhibition,[30],-1.89%
same,inhibition,[31],2.89%
same,Ki,[32]; read-out: Ki,1090 nM
same,Ki,[32]; read-out: pKi (converted),1080 nM
same,inhibition,[33],22%
same,inhibition,[34],6.22%
same,inhibition,[35],7.57%
same,inhibition,[36],2.02%
same,inhibition,[37],34.4%
same,inhibition,[38],23.5%
same,inhibition,[39],63.2%
same,inhibition,[40],30%
same,inhibition,D(2) dopamine receptor [41],2.85%
same,inhibition,[43],9.07%
same,inhibition,[44],19.3%
same,inhibition,Rattus norvegicus,2.83%
same,inhibition,[46],64.5%
same,inhibition,[47],39%
same,inhibition,[48],8.3%
same,inhibition,[50],3.36%
same,inhibition,[51],33.3%
same,inhibition,[53],69.1%
